Measurements from patent US20170128412A1, “SYSTEM AND METHOD FOR IMPROVED BLOOD CIRCULATION AND MAINTAINING MITOCHONDRIAL ENERGY PRODUCTION” (priority 2015, published 2017).

Columns and labels:
[1] = DPPH radical removal ability; assay type: biochemical; settings: for IC50: DPPH radical removal
Procedure: Chart 3 indicates the diphenylpicrylhydrazl (DPPH) radical removal ability of torolox, tocotrienol, α-tocopherol, and coenzyme Q10. The reaction composition was carried out in a DPPH solution comprising 8 mg DPPH per 100 ml of 50% ethanol. The total reaction composition comprised 0.2 ml of the specimen (torolox, tocotrienol, α-tocopherol, or coenzyme Q10) and 1.8 ml of the aforementioned DPPH solution. The total reaction composition reacted at room temperature in a dark place for 30 minutes. The absorbance measurement was carried out at 517 nm.

[2] = Linoleate peroxidative reaction inhibition (AAPH, linoleate micellar solution); assay type: biochemical; settings: for Inhibition rate (%): specimen 25 μM; for inhibition rate for linoleate hydroperoxide generation: as stated in the description ("Studies indicate")
Procedure: Chart 4 indicates the linoleate peroxidative reaction inhibition action of tocotrienol, a-tocopherol, and Coenzyme Q10. The linoleate micellar solution comprised 300mM linoleate, 5 mM 2,2′-Azobis(2-amidinopropane) dihydrochloride (AAPH), and a specimen (tocotrienol, α-tocopherol, or Coenzyme Q10) dissolved in 0.3% Lubrol Px—20 mM sodium phosphate buffer (pH 7.4). The reaction composition reacted at room temperature for one hour, and then 0.5 ml of methanol was added to the composition, and then 2.0 ml of 70% methanol was added to the composition. The absorbance measurement was conducted at 234 nm.

Compound | IC50 [1] [µM] | Inhibition rate (%) ([1]; specimen 25 μM) | Inhibition rate (%) ([1]; specimen 50 μM) | Inhibition rate (%) ([1]; specimen 100 μM) | Inhibition rate (%) [2] [%] | DPPH inhibition, result in words [1] | Linoleate peroxidation inhibition, result in words [2] | inhibition rate for linoleate hydroperoxide generation [2]
Cc1c(C)c2c(c(C)c1O)CCC(C)(C(=O)O)O2 (centres unmarked) [Torolox, torolox] | 43.8 | 19.1 | 48.2 | 94.9 | – | – | – | –
Cc1c(C)c2c(c(C)c1O)CC[C@@](C)(CCC[C@H](C)CCC[C@H](C)CCCC(C)C)O2 [α-Tocopherol, α-tocopherol] | 51.1 | 15.2 | 41 | 87.6 | 42.2 | – | – | –
tocotrienol | 55 | 16.3 | 41 | 79.8 | 42.2 | approximately the same level as a-tocopherol | inhibition at the same level as a-tocopherol | about 40%
COC1=C(OC)C(=O)C(C/C=C(\C)CC/C=C(\C)CC/C=C(\C)CC/C=C(\C)CC/C=C(\C)CC/C=C(\C)CC/C=C(\C)CC/C=C(\C)CC/C=C(\C)CCC=C(C)C)=C(C)C1=O [Coenzyme Q10, coenzyme Q10] | – | <0 | <0 | <0 | – | did not exhibit inhibition action | did not exhibit inhibition action | no such inhibition
